Assay results reported in ChEMBL document CHEMBL1129616, “Synthesis and evaluation of novel thymidine analogs as antitumor and antiviral agents” (J Med Chem, 1996).

Test system: SV-28
Experiment: Compound was tested for its effect on (target DNA or RNA) cell plating efficiency at 25 uM after a 24 hr exposure (the SV-28 cell has a plating efficiency between 50 and 60%)
Assay type: functional, Cricetulus griseus

CCCCCCCCCCCCCCCC(=O)CC[N+](C)(C)CCOCn1cc(C)c(=O)[nH]c1=O.[I-]
Cell plating efficiency: 47%
